Measurements from ChEMBL document CHEMBL1156482, “Molecular mechanism of action of monocyclam versus bicyclam non-peptide antagonists in the CXCR4 chemokine receptor” (J Biol Chem, 2007).
The source made the active and inactive calls. The rule behind the calls is not given here.

Key:
[1] = target: T1, C-X-C chemokine receptor type 4 (Homo sapiens, UniProt P61073); experiment: Displacement of [125I]12G5 antibody from human wild type CXCR4 expressed in COS7 cells; type: cell-based, COS-7
[2] = tested on: C-X-C chemokine receptor type 4 (Homo sapiens), P61073 [H113A]; experiment: (§1) Displacement of [125I]12G5 antibody from transmembrane domain 3 of human CXCR4 H113A mutant expressed in COS7 cells; type: cell-based; details: COS-7
C-X-C chemokine receptor type 4 (Homo sapiens), P61073 [H113A], sequence (P61073 whole entry H113A, the tested form may be a part): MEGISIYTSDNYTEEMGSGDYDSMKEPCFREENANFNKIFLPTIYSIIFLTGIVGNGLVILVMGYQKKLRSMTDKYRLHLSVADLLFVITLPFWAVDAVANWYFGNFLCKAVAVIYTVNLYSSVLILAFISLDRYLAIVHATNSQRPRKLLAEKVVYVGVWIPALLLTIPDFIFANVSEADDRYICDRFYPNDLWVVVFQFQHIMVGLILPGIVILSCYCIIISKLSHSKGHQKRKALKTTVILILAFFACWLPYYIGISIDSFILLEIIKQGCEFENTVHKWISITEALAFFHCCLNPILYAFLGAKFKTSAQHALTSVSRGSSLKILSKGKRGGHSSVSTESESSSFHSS

[3] = target: T2, C-X-C chemokine receptor type 4 (Homo sapiens, UniProt P61073, H113A); experiment: as §1; type: cell-based, COS-7
T2 sequence (P61073 whole entry H113A, the tested form may be a part): as above

[4] = tested on: C-X-C chemokine receptor type 4 (Homo sapiens), P61073 [D171N]; experiment: (§2) Displacement of [125I]12G5 antibody from transmembrane domain 4 of human CXCR4 D171N mutant expressed in COS7 cells; type: cell-based; details: COS-7
C-X-C chemokine receptor type 4 (Homo sapiens), P61073 [D171N], sequence (P61073 whole entry D171N, the tested form may be a part): as the sequence (P61073 whole entry H113A, the tested form may be a part) above, with A113H, D171N counted along it

[5] = target: T3, C-X-C chemokine receptor type 4 (Homo sapiens, UniProt P61073, D171N); experiment: as §2; type: cell-based, COS-7
T3 sequence (P61073 whole entry D171N): as the sequence (P61073 whole entry H113A, the tested form may be a part) above, with A113H, D171N counted along it

[6] = tested on: C-X-C chemokine receptor type 4 (Homo sapiens), P61073 [N176A]; experiment: (§3) Displacement of [125I]12G5 antibody from extracellular loop 2 of human CXCR4 N176A mutant expressed in COS7 cells; type: cell-based; details: COS-7
C-X-C chemokine receptor type 4 (Homo sapiens), P61073 [N176A], sequence (P61073 whole entry N176A): as the sequence (P61073 whole entry H113A, the tested form may be a part) above, with A113H, N176A counted along it

[7] = target: C-X-C chemokine receptor type 4 (Homo sapiens, UniProt P61073, N176A); experiment: as §3; type: cell-based, COS-7
C-X-C chemokine receptor type 4 (Homo sapiens, UniProt P61073, N176A), sequence (P61073 whole entry N176A): as the sequence (P61073 whole entry H113A, the tested form may be a part) above, with A113H, N176A counted along it

[8] = tested on: C-X-C chemokine receptor type 4 (Homo sapiens), P61073 [D182A]; experiment: (§4) Displacement of [125I]12G5 antibody from extracellular loop 2 of human CXCR4 D182A mutant expressed in COS7 cells; type: cell-based; details: COS-7
C-X-C chemokine receptor type 4 (Homo sapiens), P61073 [D182A], sequence (P61073 whole entry D182A): as the sequence (P61073 whole entry H113A, the tested form may be a part) above, with A113H, D182A counted along it

[9] = target: C-X-C chemokine receptor type 4 (Homo sapiens, UniProt P61073, D182A); experiment: as §4; type: cell-based, COS-7
C-X-C chemokine receptor type 4 (Homo sapiens, UniProt P61073, D182A), sequence (P61073 whole entry D182A): as the sequence (P61073 whole entry H113A, the tested form may be a part) above, with A113H, D182A counted along it

[10] = tested on: C-X-C chemokine receptor type 4 (Homo sapiens), P61073 [D187A]; experiment: (§5) Displacement of [125I]12G5 antibody from extracellular loop 2 of human CXCR4 D187A mutant expressed in COS7 cells; type: cell-based; details: COS-7
[11] = target: C-X-C chemokine receptor type 4 (Homo sapiens, UniProt P61073, D187A); experiment: as §5; type: cell-based, COS-7
[12] = tested on: C-X-C chemokine receptor type 4 (Homo sapiens), P61073 [H203A]; experiment: (§6) Displacement of [125I]12G5 antibody from transmembrane domain 5 of human CXCR4 H203A mutant expressed in COS7 cells; type: cell-based; details: COS-7
[13] = target: C-X-C chemokine receptor type 4 (Homo sapiens, UniProt P61073, H203A); experiment: as §6; type: cell-based, COS-7
[14] = tested on: C-X-C chemokine receptor type 4 (Homo sapiens), P61073 [G207W]; experiment: (§7) Displacement of [125I]12G5 antibody from transmembrane domain 5 of human CXCR4 G207W mutant expressed in COS7 cells; type: cell-based; details: COS-7
[15] = target: C-X-C chemokine receptor type 4 (Homo sapiens, UniProt P61073, G207W); experiment: as §7; type: cell-based, COS-7
[16] = tested on: C-X-C chemokine receptor type 4 (Homo sapiens), P61073 [Y256A]; experiment: (§8) Displacement of [125I]12G5 antibody from transmembrane domain 6 of human CXCR4 Y256A mutant expressed in COS7 cells; type: cell-based; details: COS-7
[17] = target: C-X-C chemokine receptor type 4 (Homo sapiens, UniProt P61073, Y256A); experiment: as §8; type: cell-based, COS-7
[18] = tested on: C-X-C chemokine receptor type 4 (Homo sapiens), P61073 [S263A]; experiment: (§9) Displacement of [125I]12G5 antibody from transmembrane domain 6 of human CXCR4 S263A mutant expressed in COS7 cells; type: cell-based; details: COS-7
[19] = target: C-X-C chemokine receptor type 4 (Homo sapiens, UniProt P61073, S263A); experiment: as §9; type: cell-based, COS-7
[20] = tested on: C-X-C chemokine receptor type 4 (Homo sapiens), P61073 [I284A]; experiment: (§10) Displacement of [125I]12G5 antibody from transmembrane domain 7 of human CXCR4 I284A mutant expressed in COS7 cells; type: cell-based; details: COS-7
C-X-C chemokine receptor type 4 (Homo sapiens), P61073 [I284A], sequence (P61073 whole entry I284A, the tested form may be a part): as the sequence (P61073 whole entry H113A, the tested form may be a part) above, with A113H, I284A counted along it

[21] = target: C-X-C chemokine receptor type 4 (Homo sapiens, UniProt P61073, I284A); experiment: as §10; type: cell-based, COS-7
C-X-C chemokine receptor type 4 (Homo sapiens, UniProt P61073, I284A), sequence (P61073 whole entry I284A): as the sequence (P61073 whole entry H113A, the tested form may be a part) above, with A113H, I284A counted along it

[22] = target: T1, C-X-C chemokine receptor type 4; experiment: Antagonist activity at human wild type CXCR4 expressed in COS7 cells coexpressing G protein Gqi4myr assessed as inhibition of CXCL12-induced phosphatidylinositol turnover; type: functional, cell-based, COS-7
[23] = tested on: C-X-C chemokine receptor type 4 (Homo sapiens), P61073 [H113A]; experiment: (§11) Antagonist activity at human CXCR4 H113A mutant expressed in COS7 cells coexpressing G protein Gqi4myr assessed as inhibition of CXCL12-induced phosphatidylinositol turnover; type: functional, cell-based; details: COS-7
[24] = target: T2, C-X-C chemokine receptor type 4; experiment: as §11; type: functional, cell-based, COS-7
[25] = tested on: C-X-C chemokine receptor type 4 (Homo sapiens), P61073 [L120F]; experiment: (§12) Antagonist activity at human CXCR4 L120F mutant expressed in COS7 cells coexpressing G protein Gqi4myr assessed as inhibition of CXCL12-induced phosphatidylinositol turnover; type: functional, cell-based; details: COS-7
[26] = target: C-X-C chemokine receptor type 4 (Homo sapiens, UniProt P61073, L120F); experiment: as §12; type: functional, cell-based, COS-7
[27] = tested on: C-X-C chemokine receptor type 4 (Homo sapiens), P61073 [D171N]; experiment: (§13) Antagonist activity at human CXCR4 D171N mutant expressed in COS7 cells coexpressing G protein Gqi4myr assessed as inhibition of CXCL12-induced phosphatidylinositol turnover; type: functional, cell-based; details: COS-7
[28] = target: T3, C-X-C chemokine receptor type 4; experiment: as §13; type: functional, cell-based, COS-7
[29] = tested on: C-X-C chemokine receptor type 4 (Homo sapiens), P61073 [Q200A]; experiment: (§14) Antagonist activity at human CXCR4 Q200A mutant expressed in COS7 cells coexpressing G protein Gqi4myr assessed as inhibition of CXCL12-induced phosphatidylinositol turnover; type: functional, cell-based; details: COS-7
[30] = target: C-X-C chemokine receptor type 4 (Homo sapiens, UniProt P61073, Q200A); experiment: as §14; type: functional, cell-based, COS-7
[31] = tested on: C-X-C chemokine receptor type 4 (Homo sapiens), P61073 [Y255A]; experiment: (§15) Antagonist activity at human CXCR4 Y255A mutant expressed in COS7 cells coexpressing G protein Gqi4myr assessed as inhibition of CXCL12-induced phosphatidylinositol turnover; type: functional, cell-based; details: COS-7
C-X-C chemokine receptor type 4 (Homo sapiens), P61073 [Y255A], sequence (P61073 whole entry Y255A): as the sequence (P61073 whole entry H113A, the tested form may be a part) above, with A113H, Y255A counted along it

[32] = target: C-X-C chemokine receptor type 4 (Homo sapiens, UniProt P61073, Y255A); experiment: as §15; type: functional, cell-based, COS-7
C-X-C chemokine receptor type 4 (Homo sapiens, UniProt P61073, Y255A), sequence (P61073 whole entry Y255A): as the sequence (P61073 whole entry H113A, the tested form may be a part) above, with A113H, Y255A counted along it

[33] = tested on: C-X-C chemokine receptor type 4 (Homo sapiens), P61073 [D262N]; experiment: (§16) Antagonist activity at human CXCR4 D262N mutant expressed in COS7 cells coexpressing G protein Gqi4myr assessed as inhibition of CXCL12-induced phosphatidylinositol turnover; type: functional, cell-based; details: COS-7
[34] = target: C-X-C chemokine receptor type 4 (Homo sapiens, UniProt P61073, D262N); experiment: as §16; type: functional, cell-based, COS-7
[35] = tested on: Human immunodeficiency virus 1; experiment: Antiviral activity against HIV1 NDK infected in U87.CD4 cells expressing human wild type CXCR4; type: functional, organism-based; details: Human immunodeficiency virus 1, NDK
[36] = tested on: Human immunodeficiency virus 1; experiment: Antiviral activity against HIV1 NDK infected in U87.CD4 cells expressing human CXCR4 D171N mutant; type: functional, organism-based; details: Human immunodeficiency virus 1, NDK
[37] = tested on: Human immunodeficiency virus 1; experiment: Antiviral activity against HIV1 NDK infected in U87.CD4 cells expressing human CXCR4 D262N mutant; type: functional, organism-based; details: Human immunodeficiency virus 1, NDK
[38] = tested on: Human immunodeficiency virus 1; experiment: Antiviral activity against HIV1 clinical isolate 10 infected in U87.CD4 cells expressing human CXCR4 D262N mutant; type: functional, organism-based; details: Human immunodeficiency virus 1, U87.CD4
[39] = tested on: Human immunodeficiency virus 1; experiment: Antiviral activity against HIV1 NL43 infected in U87.CD4 cells expressing human CXCR4 H281A mutant; type: functional, organism-based; details: Human immunodeficiency virus 1, NL43, U87.CD4
[40] = tested on: Human immunodeficiency virus 1; experiment: Antiviral activity against HIV1 NL43 infected in U87.CD4 cells expressing human CXCR4 E288A mutant; type: functional, organism-based

T1 sequence (P61073 whole entry, the tested form may be a part): as the sequence (P61073 whole entry H113A, the tested form may be a part) above, with A113H counted along it

## c1ccc(CNCc2ccc(CN3CCCNCCNCCCNCC3)cc2)nc1
[1]
  Ki: 110 nM
[1]; COS-7
  logKi: -6.95
[2]
  logKi: -5.6
[3]
  Ki: 2500 nM
[4]
  logKi: -5.49
[5]
  Ki: 3200 nM
[6]
  logKi: -6.98
[7]
  Ki: 100 nM
[8]
  logKi: -7.44
[9]
  Ki: 40 nM
[10]
  logKi: -6.27
[11]
  Ki: 530 nM
[12]
  logKi: -6.35
[13]
  Ki: 440 nM
[14]
  logKi: -6.88
[15]
  Ki: 130 nM
[16]
  logKi: -6.5
[17]
  Ki: 320 nM
[18]
  logKi: -6.27
[19]
  Ki: 530 nM
[20]
  logKi: -4.34
[21]
  Ki: 46000 nM
[22]
  Ki: 10 nM
[22]; COS-7
  logIC50: -8.01
[23]
  logIC50: -6.89
[24]
  Ki: 130 nM
[25]
  logIC50: -8.18
[26]
  Ki: 10 nM
[27]
  logIC50: -6.76
[28]
  Ki: 180 nM
[29]
  logIC50: -6.84
[30]
  Ki: 150 nM
[31]
  logIC50: -7.79
[32]
  Ki: 20 nM
[33]
  logIC50: -5.11
[34]
  Ki: 7800 nM
[35]
  IC50: 2700 nM
[36]
  IC50: 22000 nM
[37]
  IC50: 5380 nM
[38]
  IC50: 3820 nM
[39]
  IC50: > 1100 nM
[40]
  Activity: inactive
